Experimental data taken from the supplement of paper PMC10883282.

Assays:
Test in all cases: relative viability vs DMSO control (72 h) (fraction); higher = more viable cells
[1] = system: KHOS-240S
In short: (§1)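 Plates held 72 h at 37 °C and 5% CO2 contained sarcoma cell lines seeded in 384-well format to reach 80–90% confluence, plus 2.5 µl of serially diluted compound added after 24 h. Source plate concentrations ran from 10 mM to 0.0002 mM, with 0.1% DMSO as vehicle and a 5 µM positive control. Percent growth from ATPLite readings, averaged over up to triplicate wells, gave relative viability. Values were rescaled with 1 as full and 0 as none.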

[2] = system: RD
In short: as §1

[3] = system: SYO-1
In short: as §1

[4] = system: MES-SA
In short: as §1

[5] = system: SW1353
In short: as §1

[6] = system: SW982
In short: as §1

[7] = system: VA-ES-BJ
In short: as §1

[8] = system: HT1080
In short: as §1

[9] = system: SK-LMS-1
In short: as §1

[10] = system: RD-ES
In short: as §1

[11] = system: G401
In short: as §1

[12] = system: SK-ES-1
In short: as §1

CNC(=O)c1cc(Oc2ccc(NC(=O)Nc3ccc(Cl)c(C(F)(F)F)c3)cc2)ccn1 [Sorafenib]
Conditions | relative viability
[1], 0.00017 µM | 1.04
[1], 0.00051 µM | 1.07
[1], 0.00152 µM | 1.09
[1], 0.00457 µM | 1.08
[1], 0.01372 µM | 1.06
[1], 0.04115 µM | 1.08
[1], 0.1235 µM | 1.08
[1], 0.3704 µM | 1.11
[1], 1.111 µM | 1.05
[1], 3.333 µM | 0.728
[1], 10 µM | 0.309
[2], 0.00017 µM | 1.11
[2], 0.00051 µM | 1.11
[2], 0.00152 µM | 1.09
[2], 0.00457 µM | 1.12
[2], 0.01372 µM | 1.09
[2], 0.04115 µM | 1.12
[2], 0.1235 µM | 1.14
[2], 0.3704 µM | 1.13
[2], 1.111 µM | 1.04
[2], 3.333 µM | 0.9
[2], 10 µM | 0.504
[3], 0.00017 µM | 0.968
[3], 0.00051 µM | 0.967
[3], 0.00152 µM | 0.96
[3], 0.00457 µM | 0.95
[3], 0.01372 µM | 0.948
[3], 0.04115 µM | 0.944
[3], 0.1235 µM | 0.916
[3], 0.3704 µM | 0.773
[3], 1.111 µM | 0.626
[3], 3.333 µM | 0.509
[3], 10 µM | 0.137
[4], 0.00017 µM | 0.928
[4], 0.00051 µM | 0.925
[4], 0.00152 µM | 0.909
[4], 0.00457 µM | 0.934
[4], 0.01372 µM | 0.923
[4], 0.04115 µM | 0.949
[4], 0.1235 µM | 1.01
[4], 0.3704 µM | 1.03
[4], 1.111 µM | 0.985
[4], 3.333 µM | 0.716
[4], 10 µM | 0.135
[5], 0.00017 µM | 0.98
[5], 0.00051 µM | 1.02
[5], 0.00152 µM | 1.01
[5], 0.00457 µM | 1.01
[5], 0.01372 µM | 1.01
[5], 0.04115 µM | 1.01
[5], 0.1235 µM | 0.992
[5], 0.3704 µM | 1.02
[5], 1.111 µM | 1.04
[5], 3.333 µM | 0.85
[5], 10 µM | 0.39
[6], 0.00017 µM | 1.07
[6], 0.00051 µM | 1.06
[6], 0.00152 µM | 1.05
[6], 0.00457 µM | 1.07
[6], 0.01372 µM | 1.06
[6], 0.04115 µM | 1.07
[6], 0.1235 µM | 1.07
[6], 0.3704 µM | 1.07
[6], 1.111 µM | 1.06
[6], 3.333 µM | 0.992
[6], 10 µM | 0.559
[7], 0.00017 µM | 1.04
[7], 0.00051 µM | 1.07
[7], 0.00152 µM | 1.07
[7], 0.00457 µM | 1.06
[7], 0.01372 µM | 1.07
[7], 0.04115 µM | 1.09
[7], 0.1235 µM | 1.11
[7], 0.3704 µM | 1.143
[7], 1.111 µM | 1.15
[7], 3.333 µM | 1.14
[7], 10 µM | 0.436
[8], 0.00017 µM | 1.06
[8], 0.00051 µM | 1.06
[8], 0.00152 µM | 1.1
[8], 0.00457 µM | 1.08
[8], 0.01372 µM | 1.07
[8], 0.04115 µM | 1.07
[8], 0.1235 µM | 1.08
[8], 0.3704 µM | 1.12
[8], 1.111 µM | 1.102
[8], 3.333 µM | 0.94
[8], 10 µM | 0.0932
[9], 0.00017 µM | 1.1
[9], 0.00051 µM | 1.07
[9], 0.00152 µM | 1.11
[9], 0.00457 µM | 1.1
[9], 0.01372 µM | 1.1
[9], 0.04115 µM | 1.12
[9], 0.1235 µM | 1.05
[9], 0.3704 µM | 1.09
[9], 1.111 µM | 1.07
[9], 3.333 µM | 0.713
[9], 10 µM | 0.0735
[10], 0.00017 µM | 0.972
[10], 0.00051 µM | 0.98
[10], 0.00152 µM | 0.963
[10], 0.00457 µM | 0.992
[10], 0.01372 µM | 1
[10], 0.04115 µM | 0.987
[10], 0.1235 µM | 0.987
[10], 0.3704 µM | 0.992
[10], 1.111 µM | 0.994
[10], 3.333 µM | 0.903
[10], 10 µM | 0.274
[11], 0.00017 µM | 0.997
[11], 0.00051 µM | 1
[11], 0.00152 µM | 1.01
[11], 0.00457 µM | 1.01
[11], 0.01372 µM | 1.04
[11], 0.04115 µM | 1.01
[11], 0.1235 µM | 1.02
[11], 0.3704 µM | 0.988
[11], 1.111 µM | 0.893
[11], 3.333 µM | 0.684
[11], 10 µM | 0.147
[12], 0.00017 µM | 0.978
[12], 0.00051 µM | 1.01
[12], 0.00152 µM | 1.04
[12], 0.00457 µM | 1.05
[12], 0.01372 µM | 1.07
[12], 0.04115 µM | 1.01
[12], 0.1235 µM | 1.06
[12], 0.3704 µM | 1.07
[12], 1.111 µM | 0.96
[12], 3.333 µM | 0.8855
[12], 10 µM | 0.252

CCN(c1cc(-c2ccc(CN3CCOCC3)cc2)cc(C(=O)NCc2c(C)cc(C)[nH]c2=O)c1C)C1CCOCC1 [Tazemetostat]
Conditions | relative viability
[1], 0.00017 µM | 1.02
[1], 0.00051 µM | 1.031
[1], 0.00152 µM | 1.03
[1], 0.00457 µM | 1.03
[1], 0.01372 µM | 1.01
[1], 0.04115 µM | 1.03
[1], 0.1235 µM | 1.01
[1], 0.3704 µM | 0.9861
[1], 1.111 µM | 0.9866
[1], 3.333 µM | 0.975
[1], 10 µM | 0.925
[2], 0.00017 µM | 0.988
[2], 0.00051 µM | 1
[2], 0.00152 µM | 1.04
[2], 0.00457 µM | 1.04
[2], 0.01372 µM | 1.05
[2], 0.04115 µM | 1.03
[2], 0.1235 µM | 1.06
[2], 0.3704 µM | 1.03
[2], 1.111 µM | 1.04
[2], 3.333 µM | 1.04
[2], 10 µM | 1.03
[3], 0.00017 µM | 1.03
[3], 0.00051 µM | 1
[3], 0.00152 µM | 1.02
[3], 0.00457 µM | 1
[3], 0.01372 µM | 0.994
[3], 0.04115 µM | 1.006
[3], 0.1235 µM | 1
[3], 0.3704 µM | 0.95
[3], 1.111 µM | 0.953
[3], 3.333 µM | 0.915
[3], 10 µM | 0.873
[4], 0.00017 µM | 1
[4], 0.00051 µM | 0.988
[4], 0.00152 µM | 0.9899
[4], 0.00457 µM | 0.986
[4], 0.01372 µM | 0.977
[4], 0.04115 µM | 0.998
[4], 0.1235 µM | 1
[4], 0.3704 µM | 0.942
[4], 1.111 µM | 0.933
[4], 3.333 µM | 0.926
[4], 10 µM | 0.874
[5], 0.00017 µM | 1.08
[5], 0.00051 µM | 1.04
[5], 0.00152 µM | 1.065
[5], 0.00457 µM | 1.08
[5], 0.01372 µM | 1.05
[5], 0.04115 µM | 1.09
[5], 0.1235 µM | 1.05
[5], 0.3704 µM | 1.04
[5], 1.111 µM | 1.02
[5], 3.333 µM | 1.02
[5], 10 µM | 0.991
[6], 0.00017 µM | 0.968
[6], 0.00051 µM | 0.988
[6], 0.00152 µM | 0.977
[6], 0.00457 µM | 0.98
[6], 0.01372 µM | 0.973
[6], 0.04115 µM | 1.02
[6], 0.1235 µM | 0.985
[6], 0.3704 µM | 0.951
[6], 1.111 µM | 0.958
[6], 3.333 µM | 0.926
[6], 10 µM | 0.932
[7], 0.00017 µM | 1.038
[7], 0.00051 µM | 1.046
[7], 0.00152 µM | 1.05
[7], 0.00457 µM | 1.05
[7], 0.01372 µM | 1.034
[7], 0.04115 µM | 1.06
[7], 0.1235 µM | 1.06
[7], 0.3704 µM | 1.07
[7], 1.111 µM | 1.06
[7], 3.333 µM | 1.08
[7], 10 µM | 1.07
[8], 0.00017 µM | 1.09
[8], 0.00051 µM | 1.1
[8], 0.00152 µM | 1.08
[8], 0.00457 µM | 1.09
[8], 0.01372 µM | 1.085
[8], 0.04115 µM | 1.07
[8], 0.1235 µM | 1.09
[8], 0.3704 µM | 1.1
[8], 1.111 µM | 1.071
[8], 3.333 µM | 1.08
[8], 10 µM | 1.01
[9], 0.00017 µM | 0.996
[9], 0.00051 µM | 1.02
[9], 0.00152 µM | 0.981
[9], 0.00457 µM | 1
[9], 0.01372 µM | 0.997
[9], 0.04115 µM | 1.03
[9], 0.1235 µM | 0.969
[9], 0.3704 µM | 0.9897
[9], 1.111 µM | 0.976
[9], 3.333 µM | 0.969
[9], 10 µM | 0.938
[10], 0.00017 µM | 0.984
[10], 0.00051 µM | 1
[10], 0.00152 µM | 0.989
[10], 0.00457 µM | 0.965
[10], 0.01372 µM | 0.968
[10], 0.04115 µM | 1.01
[10], 0.1235 µM | 0.975
[10], 0.3704 µM | 0.971
[10], 1.111 µM | 1
[10], 3.333 µM | 0.988
[10], 10 µM | 0.98
[11], 0.00017 µM | 1.03
[11], 0.00051 µM | 1.01
[11], 0.00152 µM | 1
[11], 0.00457 µM | 1.049
[11], 0.01372 µM | 1.05
[11], 0.04115 µM | 1.04
[11], 0.1235 µM | 1
[11], 0.3704 µM | 0.999
[11], 1.111 µM | 1.01
[11], 3.333 µM | 1.02
[11], 10 µM | 1.01
[12], 0.00017 µM | 1.03
[12], 0.00051 µM | 1.01
[12], 0.00152 µM | 0.982
[12], 0.00457 µM | 0.993
[12], 0.01372 µM | 0.972
[12], 0.04115 µM | 1.03
[12], 0.1235 µM | 1.009
[12], 0.3704 µM | 0.998
[12], 1.111 µM | 0.991
[12], 3.333 µM | 0.961
[12], 10 µM | 0.995
